Assays:
p38a = p38a (Homo sapiens (Human), UniProt Q16539); assay: Assay of p38 kinase activity (fluorescence, peptide substrate); format: biochemical; conditions: 40 nM p38a, 100 μM ATP, 90 minutes
Procedure: II. Assay of p38 Kinase Activity
Experimental Method: 40 nM p38a was added into a reaction buffer, which include 20 mM HEPES (4-hydroxyethylpiperazine ethanesulfonic acid), 5 mM MgCl2 and 1 mM DTT (dithiothreitol) at pH 7.4. 40 μM phosphorylated peptide substrate was added, followed by different concentrations of drugs and 100 μM ATP (adenosine triphosphate), and reacted for 90 minutes in dark. […] The IC50 values of the compounds were obtained according to the fluorescence values.

TNF-α = assay: In vitro cell experiment: LPS-stimulated TNF-α release in THP-1 cells (ELISA); format: cell-based; conditions: Homo sapiens; TNF-α in supernatant of THP-1 cells, compound 2 h then LPS 10 μg/ml 2 h
Text: I. In Vitro Cell Experiment
Cells: human monocytic leukemia THP-1 cells (obtained from the Shanghai Cell Bank of Chinese Academy of Sciences).
Lipopolysaccharides: from Escherichia coli O55: B5, L2880 (Sigma).
Kit: Human TNF-α Elisa MAX Deluxe Set, 430206 (Biolegend)

Chain of p38a (Q16539 whole entry): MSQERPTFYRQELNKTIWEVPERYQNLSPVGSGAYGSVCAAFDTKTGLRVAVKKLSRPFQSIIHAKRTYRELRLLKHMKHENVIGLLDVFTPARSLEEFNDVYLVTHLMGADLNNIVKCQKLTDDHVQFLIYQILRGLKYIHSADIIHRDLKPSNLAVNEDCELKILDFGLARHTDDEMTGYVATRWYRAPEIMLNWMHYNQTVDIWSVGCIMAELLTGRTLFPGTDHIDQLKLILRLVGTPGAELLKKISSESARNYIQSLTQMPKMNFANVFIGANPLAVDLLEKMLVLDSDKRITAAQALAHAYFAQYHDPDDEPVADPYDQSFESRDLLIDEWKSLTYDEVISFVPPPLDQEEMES

| SMILES | IC50 (p38a) [nM] | IC50 (TNF-α) [nM] |
| --- | --- | --- |
| Cc1c(F)cc(C(=O)NC2CC2)cc1-c1ccc(C(=O)NC2CCCCC2)cn1 [Example 10, N-cyclohexyl-6-(5-(cyclopropylcarbamoyl)-3-fluoro-2-methylphenyl) nicotinamide] |  | < 5 |
| Cc1c(F)cc(C(=O)NC2CC2)cc1-c1ccc(C(=O)N2CCCCCC2)cn1 [Example 14] |  | 5 to 10 |
| Cc1c(F)cc(C(=O)NC2CC2)cc1-c1ccc(C(=O)NC2CCCC2)cc1 [Example 22] |  | < 5 |
| Cc1c(F)cc(C(=O)NC2CC2)cc1-c1ccc(C(=O)N(C)C2CCCC2)cc1 [Example 23, N^4′-cyclopentyl-N^3-cyclopropyl-5-fluoro-N^4′,6-dimethyl-[1,1′-biphenyl]-3,4′-dicarboxamide] |  | 5 to 10 |
| Cc1c(F)cc(C(=O)NC2CC2)cc1-c1ccc(C(=O)NC2CCCCC2)cc1 [Example 24, N^4′-cyclohexyl-N^3-cyclopropyl-5-fluoro-6-methyl-[1,1′-biphenyl]-3,4′-dicarboxamide] |  | 5 to 10 |
| Cc1c(F)cc(C(=O)NC2CC2)cc1-c1ccc(C(=O)N(C)C2CCCCC2)cc1 [Example 25, N^4′-cyclohexyl-N^3-cyclopropyl-5-fluoro-N^4′,6-dimethyl-[1,1′-biphenyl]-3,4′-dicarboxamide] | 5 to 10 | < 5 |
| Cc1c(F)cc(C(=O)NC2CC2)cc1-c1ccc(C(=O)N2CCC(C)CC2)cc1 [Example 26, N-cyclopropyl-5-fluoro-6-methyl-4′-(4-methylpiperidin-1-carbonyl)-[1,1′-biphenyl]-3-carboxamide] |  | 5 to 10 |
| Cc1c(F)cc(C(=O)NC2CC2)cc1-c1ccc(C(=O)N2CCCCCC2)cc1 [Example 28, 4′-(azepane-1-carbonyl)-N-cyclopropyl-5-fluoro-6-methyl-[1,1′-biphenyl]-3-carboxamide] |  | 5 to 10 |
| Cc1c(F)cc(C(=O)NC2CC2)cc1-c1ccc(C(=O)NC2CCCC2)c(F)c1 [Example 32, N^4′-cyclopentyl-N^3-cyclopropyl-3′,5-difluoro-6-methyl-[1,1′-biphenyl]-3,4′-dicarboxamide] | < 5 | < 5 |
| Cc1c(F)cc(C(=O)NC2CC2)cc1-c1ccc(C(=O)N(C)C2CCCC2)c(F)c1 [Example 33, N^4′-cyclopentyl-N^3-cyclopropyl-3′,5-difluoro-N^4′,6-dimethyl-[1,1′-biphenyl]-3,4′-dicarboxamide] |  | < 5 |
| Cc1c(F)cc(C(=O)NC2CC2)cc1-c1ccc(NC(=O)C2CCCCC2)c(F)c1 [Example 47, 4′-(cyclohexanecarboxamido)-N-cyclopropyl-3′,5-difluoro-6-methyl-[1,1′-biphenyl]-3-carboxamide] |  | 5 to 10 |
| Cc1cc(-c2cc(C(=O)NC3CC3)cc(F)c2C)ccc1NC(=O)NC1CCCC1 [Example 50, 4′-(3-cyclopentylureido)-N-cyclopropyl-5-fluoro-3′,6-dimethyl-[1,1′-biphenyl]-3-carboxamide] |  | < 5 |
| CCCCNc1nc2ccc(-c3cc(C(=O)NC4CC4)cc(F)c3C)cc2s1 [Example 52, 3-(2-(butylamino)benzo [d]thiazol-6-yl)-N-cyclopropyl-5-fluoro-4-methylbenzamide] | 5 to 10 | 5 to 10 |
| Cc1c(F)cc(C(=O)NC2CC2)cc1-c1ccc2nc(NC3CCCC3)sc2c1 [Example 54, 3-(2-(cyclopentylamino)benzo[d]thiazol-6-yl)-N-cyclopropyl-5-fluoro-4-methylbenzamide] |  | 5 to 10 |
| Cc1c(F)cc(C(=O)NC2CC2)cc1-c1ccc(C(=O)N2CCCCC2)s1 [Example 55, N-cyclopropyl-3-fluoro-4-methyl-5-(5-(piperidin-1-carbonyl)thiophen-2-yl) benzamide] | 5 to 10 | 5 to 10 |
| Cc1c(F)cc(C(=O)NC2CC2)cc1-c1ccc(C(=O)N2CCC(C)CC2)s1 [Example 56, N-cyclopropyl-3-fluoro-4-methyl-5-(5-(4-methylpiperidin-1-carbonyl)thiophen-2-yl)benzamide] | 5 to 10 | 5 to 10 |
| Cc1c(F)cc(C(=O)NC2CC2)cc1-c1ccc(C(=O)N(C)C2CCCCC2)nn1 [Example 62] | < 5 | 5 to 10 |
| C=CCNC(=O)c1cc(F)c(C)c(-c2ccc(C(=O)NC3CCCC3)nn2)c1 [Example 79, 6-(5-(allylcarbamoyl)-3-fluoro-2-methylphenyl)-N-cyclopentylpyridazin-3-carboxamide] | < 5 | 5 to 10 |
| C=CCNC(=O)c1cc(F)c(C)c(-c2ccc(C(=O)NC3CCCCC3)nn2)c1 [Example 80, 6-(5-(allylcarbamoyl)-3-fluoro-2-methylphenyl)-N-cyclohexylpyridazin-3-carboxamide] | < 5 | 5 to 10 |
| C=CCNC(=O)c1cc(F)c(C)c(-c2ccc(C(=O)NCC(C)(C)C)cn2)c1 [Example 81, 6-(5-(allylcarbamoyl)-3-fluoro-2-methylphenyl)-N-neopentylnicotinamide] |  | 5 to 10 |

Next, values leading:

| IC50 (p38a) [nM] | IC50 (TNF-α) [nM] | SMILES |
| --- | --- | --- |
| 5 to 10 | 5 to 10 | CCCCCNC(=O)c1ccc(-c2cc(C(=O)NC3CC3)cc(F)c2C)nc1 [Example 9, 6-(5-(cyclopropylcarbamoyl)-3-fluoro-2-methylphenyl)-N-pentylnicotinamide] |
| < 5 | < 5 | Cc1c(F)cc(C(=O)NC2CC2)cc1-c1ccc(C(=O)NCC(C)C)nc1 [Example 15, 5-(5-(cyclopropylcarbamoyl)-3-fluoro-2-methylphenyl)-N-isobutylpyridin-2-formamide] |
|  | < 5 | Cc1c(F)cc(C(=O)NC2CC2)cc1-c1ccc(C(=O)NC2CCCC2)nc1 [Example 17, N-cyclopentyl-5-(5-(cyclopropylcarbamoyl)-3-fluoro-2-methylphenyl)pyridin-2-foramamide] |
|  | 5 to 10 | CCCN(CCC)C(=O)c1ccc(-c2cc(C(=O)NC3CC3)cc(F)c2C)cc1 [Example 20, N^3-cyclopropyl-5-fluoro-6-methyl-N^4′,N^4′-dipropyl-[1,1′-biphenyl]-3,4′-dicarboxamide] |
| < 5 | < 5 | Cc1c(F)cc(C(=O)NC2CC2)cc1-c1ccc(C(=O)NCC(C)C)c(F)c1 [Example 30, N^3-cyclopropyl-3′,5-difluoro-N^4′-isobutyl-6-methyl-[1,1′-biphenyl]-3,4′-dicarboxamide] |
| < 5 | < 5 | Cc1c(F)cc(C(=O)NC2CC2)cc1-c1ccc(C(=O)N(C)CC(C)C)c(F)c1 [Example 31, N^3-cyclopropyl-3′,5-difluoro-N^4′-isobutyl-N^4′,6-dimethyl-[1,1′-biphenyl]-3,4′-dicarboxamide] |
|  | < 5 | CCC(C)(C)NC(=O)c1ccc(-c2cc(C(=O)NC3CC3)cc(F)c2C)cc1N [Example 41, 3′-amino-N^3-cyclopropyl-5-fluoro-6-methyl-N^4′-(tertpentyl)-[1,1′-biphenyl]-3,4′-dicarboxamide] |
| 5 to 10 | < 5 | Cc1c(F)cc(C(=O)NC2CC2)cc1-c1ccc2nc(NCC(C)C)sc2c1 [Example 51, N-cyclopropyl-3-fluoro-5-(2-(isobutylamino)benzo[d]thiazol-6-yl)-4-methylbenzamide] |
| < 5 | 5 to 10 | Cc1c(F)cc(C(=O)NC2CC2)cc1-c1ccc(C(=O)NCCC(C)C)nn1 [Example 60, 6-(5-(cyclopropylcarbamoyl)-3-fluoro-2-methylphenyl)-N-isopentylpyridazin-3-carboxamide] |

From patent US10550073B2, “Benzamide derivative” (CSPC ZHONGQI PHARMACEUTICAL TECHNOLOGY (SHIJIAZHUANG) CO., …, priority 2015, dated 2020)
